Laboratory results: article PMC2430034, “Structural Development Studies of Subtype-Selective Ligands for Peroxisome Proliferator-Activated Receptors (PPARs) Based on the 3,4-Disubstituted Phenylpropanoic Acid Scaffold as a Versatile Template” (PPAR Research, 2008)
Read-outs that look alike come from different tables or passages of the source.

Key:
Type in all cases: cell-based
[1] = molecular target: T1, PPARα (Homo sapiens, UniProt Q07869); assay: PPARα-GAL4 chimeric receptor transactivation in CHO-K1 cells; conditions: for EC50: read-out: Transactivation activity EC50 PPARα
T1 sequence (Q07869 200-468 limits assumed): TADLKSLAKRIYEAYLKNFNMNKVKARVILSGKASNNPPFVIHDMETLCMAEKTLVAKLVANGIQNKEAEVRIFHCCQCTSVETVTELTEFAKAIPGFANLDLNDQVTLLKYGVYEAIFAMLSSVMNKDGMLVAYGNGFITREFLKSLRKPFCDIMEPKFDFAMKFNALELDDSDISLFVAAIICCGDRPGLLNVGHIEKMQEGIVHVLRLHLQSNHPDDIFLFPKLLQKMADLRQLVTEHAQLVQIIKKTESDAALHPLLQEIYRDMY

[2] = molecular target: T2, PPARδ (Homo sapiens, UniProt Q03181); assay: cell-based; conditions: PPAR-GAL4 chimeric receptors, transiently transfected CHO-K1 cells, ia = inactive at 10 μM; for EC50: read-out: Transactivation activity EC50 PPARδ
T2 sequence (Q03181 211-441 limits assumed): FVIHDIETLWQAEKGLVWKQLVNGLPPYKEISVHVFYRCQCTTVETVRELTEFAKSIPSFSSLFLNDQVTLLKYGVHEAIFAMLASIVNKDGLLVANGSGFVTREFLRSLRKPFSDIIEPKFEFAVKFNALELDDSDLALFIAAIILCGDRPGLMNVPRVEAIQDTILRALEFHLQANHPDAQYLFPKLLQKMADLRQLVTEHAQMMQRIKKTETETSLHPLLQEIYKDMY

[3] = molecular target: T3, PPARγ (Homo sapiens, UniProt P37231); assay: cell-based; conditions: PPAR-GAL4 chimeric receptors, transiently transfected CHO-K1 cells; ia = inactive at 10 μM
T3 sequence (P37231 232-505 limits assumed): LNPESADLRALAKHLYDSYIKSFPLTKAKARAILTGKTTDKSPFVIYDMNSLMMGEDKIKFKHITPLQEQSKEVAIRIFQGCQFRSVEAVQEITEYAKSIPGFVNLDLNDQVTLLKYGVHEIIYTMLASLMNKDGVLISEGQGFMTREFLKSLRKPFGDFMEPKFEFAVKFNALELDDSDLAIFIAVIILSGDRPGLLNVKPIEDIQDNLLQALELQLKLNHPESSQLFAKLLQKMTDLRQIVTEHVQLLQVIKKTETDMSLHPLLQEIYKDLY

[4] = PPAR-GAL4 chimeric receptors, transiently transfected CHO-K1 cells, ia = inactive at 10 μM

Transactivation activity EC50 PPARα [1, 4]	SMILES	EC50 [1, 4]	Transactivation activity EC50 PPARδ [2]	Transactivation activity EC50 PPARγ [3]	EC50 [2]	EC50 [1]
	COc1ccc(CCC(=O)O)cc1C(=O)NCc1ccc(C(F)(F)F)cc1 [Compound 9]	1300 nM	ia	ia		
ia	COc1ccc(CC(Sc2ccccc2)C(=O)O)cc1C(=O)NCc1ccc(C(F)(F)F)cc1 (stereo not drawn) [Compound 22]		ia	ia		
	COc1ccc(CC(C(=O)O)C(C)C)cc1C(=O)NCc1ccc(C(F)(F)F)cc1 (stereo not drawn) [Compound 13]	290 nM	ia	ia		
	COc1ccc(CC(C)C(=O)O)cc1C(=O)NCc1ccc(C(F)(F)F)cc1 (stereo not drawn) [Compound 10]	240 nM		ia	2800 nM	
	CCC(Cc1ccc(OC)c(CC(=O)Nc2ccc(C(F)(F)F)cc2)c1)C(=O)O (stereo not drawn) [Compound 29]		ia	ia		20 nM
	CCC(Cc1ccc(OC)c(C(=O)Nc2ccc(C(F)(F)F)cc2)c1)C(=O)O (stereo not drawn) [Compound 24]		ia^(b)	ia		6000 nM
	CCC(Cc1ccc(OC)c(CNCc2ccc(C(F)(F)F)cc2)c1)C(=O)O (stereo not drawn) [Compound 34]			ia	8000 nM	4900 nM
ia	COc1ccc(CC(Oc2ccccc2)C(=O)O)cc1C(=O)NCc1ccc(C(F)(F)F)cc1 (stereo not drawn) [Compound 18]		ia	ia		
ia	COc1ccc(CC(C(=O)O)c2ccccc2)cc1C(=O)NCc1ccc(C(F)(F)F)cc1 (stereo not drawn) [Compound 15]		ia	ia		
	CCC(Cc1ccc(OC)c(CCCc2ccc(C(F)(F)F)cc2)c1)C(=O)O (stereo not drawn) [Compound 31]			ia	640 nM	860 nM
	CCC(Cc1ccc(OC)c(C(=O)NCCc2ccc(C(F)(F)F)cc2)c1)C(=O)O (stereo not drawn) [Compound 25]			ia	1500 nM	740 nM
ia^(b)	COc1ccc(C(=O)O)cc1C(=O)NCc1ccc(C(F)(F)F)cc1 [Compound 7]		ia	ia		
	CCCC(Cc1ccc(OC)c(C(=O)NCc2ccc(C(F)(F)F)cc2)c1)C(=O)O (stereo not drawn) [Compound 12]	360 nM		ia	2400 nM	
ia	CCC(Cc1ccc(OC)c(NC(=O)Nc2ccc(C(F)(F)F)cc2)c1)C(=O)O (stereo not drawn) [Compound 28]		ia	ia		
	CCC(CC)(Cc1ccc(OC)c(C(=O)NCc2ccc(C(F)(F)F)cc2)c1)C(=O)O [Compound 20]	2800 nM	ia	ia		
ia	CCC(Cc1ccc(OC)c(C(=O)N(C)Cc2ccc(C(F)(F)F)cc2)c1)C(=O)O (stereo not drawn) [Compound 26]		ia	ia		
	COc1ccc(CC(C)(C)C(=O)O)cc1C(=O)NCc1ccc(C(F)(F)F)cc1 [Compound 19]	2900 nM	ia	ia		
	CCC(Cc1ccc(OC)c(NC(=O)Cc2ccc(C(F)(F)F)cc2)c1)C(=O)O (stereo not drawn) [Compound 27]		ia	ia		130 nM
	CCC(Cc1ccc(OC)c(C(=O)NCc2ccc(C(F)(F)F)cc2)c1)C(=O)O (stereo not drawn) [Compound 11]	40 nM			3600 nM	
	COc1ccc(CC2SC(=O)NC2=O)cc1C(=O)NCc1ccc(C(F)(F)F)cc1 (stereo not drawn) [KRP-297, reference compound]		ia			
